Results published in PubChem BioAssay (NCI).
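Here, GI50 denotes the concentration required for 50% inhibition of growth. Definition used: TGI = concentration required for complete inhibition of growth.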

Legend:
Assay in all cases: inhibition of tumour cell growth, NCI panel, 384-well format
SN12C renal = test system: SN12C renal
T-47D breast = test system: T-47D breast
OVCAR-8 ovarian = test system: OVCAR-8 ovarian
NCI-H23 lung = test system: NCI-H23 lung
CAKI-1 renal = test system: CAKI-1 renal
RPMI-8226 leukemia = test system: RPMI-8226 leukemia
SW-620 colon = test system: SW-620 colon
NCI/ADR-RES ovarian = test system: NCI/ADR-RES ovarian
ACHN renal = test system: ACHN renal
SR leukemia = test system: SR leukemia
SF-295 CNS = test system: SF-295 CNS
MDA-MB-468 breast = test system: MDA-MB-468 breast
M14 melanoma = test system: M14 melanoma
OVCAR-4 ovarian = test system: OVCAR-4 ovarian
HCT-116 colon = test system: HCT-116 colon
MDA-MB-231 breast = test system: MDA-MB-231 breast
SF-268 CNS = test system: SF-268 CNS
HOP-62 NSCLC = test system: HOP-62 NSCLC
A549 NSCLC = test system: A549 NSCLC
KM12 colon = test system: KM12 colon
OVCAR-3 ovarian = test system: OVCAR-3 ovarian
HCC-2998 colon = test system: HCC-2998 colon
A498 renal = test system: A498 renal
MOLT-4 leukemia = test system: MOLT-4 leukemia
786-0 renal = test system: 786-0 renal
OVCAR-5 ovarian = test system: OVCAR-5 ovarian
TK-10 renal = test system: TK-10 renal
RXF 393 renal = test system: RXF 393 renal
HOP-92 NSCLC = test system: HOP-92 NSCLC
UACC-257 melanoma = test system: UACC-257 melanoma
MCF7 breast = test system: MCF7 breast
SK-MEL-5 melanoma = test system: SK-MEL-5 melanoma
MALME-3M melanoma = test system: MALME-3M melanoma
SF-539 CNS = test system: SF-539 CNS
CCRF-CEM leukemia = test system: CCRF-CEM leukemia
NCI-H460 NSCLC = test system: NCI-H460 NSCLC
SNB-75 CNS = test system: SNB-75 CNS
COLO 205 colon = test system: COLO 205 colon
SK-MEL-28 melanoma = test system: SK-MEL-28 melanoma
NCI-H322M lung = test system: NCI-H322M lung
HT29 colon = test system: HT29 colon
UO-31 renal = test system: UO-31 renal
K-562 leukemia = test system: K-562 leukemia
SK-MEL-2 melanoma = test system: SK-MEL-2 melanoma
HCT-15 colon = test system: HCT-15 colon
DU-145 prostate = test system: DU-145 prostate
HS 578T breast = test system: HS 578T breast

Structure (SMILES): Cn1cc(-c2cc3c(N4CCN(c5ncc([C@@](C)(N)c6ccc(F)cc6)cn5)CC4)ncnn3c2)cn1
- GI50 (SN12C renal): 4.54 µM
- TGI (SN12C renal): 16.7 µM
- GI50 (T-47D breast): 1.49 µM
- TGI (T-47D breast): 6.16 µM
- GI50 (OVCAR-8 ovarian): 4.07 µM
- TGI (OVCAR-8 ovarian): > 50.8 µM
- GI50 (NCI-H23 lung): 2.23 µM
- TGI (NCI-H23 lung): 14.2 µM
- GI50 (CAKI-1 renal): 3.71 µM
- TGI (CAKI-1 renal): 17.6 µM
- GI50 (RPMI-8226 leukemia): 1.59 µM
- TGI (RPMI-8226 leukemia): 3.21 µM
- GI50 (SW-620 colon): 2.97 µM
- TGI (SW-620 colon): 11.5 µM
- GI50 (NCI/ADR-RES ovarian): 3.19 µM
- TGI (NCI/ADR-RES ovarian): 17.9 µM
- GI50 (ACHN renal): 3.7 µM
- TGI (ACHN renal): 13.9 µM
- GI50 (SR leukemia): 1.58 µM
- TGI (SR leukemia): 3.02 µM
- GI50 (SF-295 CNS): 3.72 µM
- TGI (SF-295 CNS): 19.9 µM
- GI50 (MDA-MB-468 breast): 1.12 µM
- TGI (MDA-MB-468 breast): 3.03 µM
- GI50 (M14 melanoma): 4.42 µM
- TGI (M14 melanoma): 19.2 µM
- GI50 (OVCAR-4 ovarian): 2.96 µM
- TGI (OVCAR-4 ovarian): 12.2 µM
- GI50 (HCT-116 colon): 3.39 µM
- TGI (HCT-116 colon): 12.3 µM
- GI50 (MDA-MB-231 breast): 3.47 µM
- TGI (MDA-MB-231 breast): > 35.4 µM
- GI50 (SF-268 CNS): 7.57 µM
- TGI (SF-268 CNS): 38.3 µM
- GI50 (HOP-62 NSCLC): 3.14 µM
- TGI (HOP-62 NSCLC): > 50.1 µM
- GI50 (A549 NSCLC): 4.21 µM
- TGI (A549 NSCLC): 36.5 µM
- GI50 (KM12 colon): 4.11 µM
- TGI (KM12 colon): 28.1 µM
- GI50 (OVCAR-3 ovarian): 6.11 µM
- TGI (OVCAR-3 ovarian): 18 µM
- GI50 (HCC-2998 colon): 2.15 µM
- TGI (HCC-2998 colon): 3.82 µM
- GI50 (A498 renal): 3.12 µM
- TGI (A498 renal): 9.79 µM
- GI50 (MOLT-4 leukemia): 1.38 µM
- TGI (MOLT-4 leukemia): 2.73 µM
- GI50 ([…]-0 renal): 1.76 µM
- TGI (786-0 renal): 3.37 µM
- GI50 (OVCAR-5 ovarian): 5.61 µM
- TGI (OVCAR-5 ovarian): 29.5 µM
- GI50 (TK-10 renal): 7.29 µM
- TGI (TK-10 renal): 48.2 µM
- GI50 (RXF 393 renal): 1.03 µM
- TGI (RXF 393 renal): 3.02 µM
- GI50 (HOP-92 NSCLC): 2.66 µM
- TGI (HOP-92 NSCLC): 10.2 µM
- GI50 (UACC-257 melanoma): 2.1 µM
- TGI (UACC-257 melanoma): 4.76 µM
- GI50 (MCF7 breast): 2.31 µM
- TGI (MCF7 breast): 8.7 µM
- GI50 (SK-MEL-5 melanoma): 1.85 µM
- TGI (SK-MEL-5 melanoma): 3.98 µM
- GI50 (MALME-3M melanoma): 2.46 µM
- TGI (MALME-3M melanoma): 5.79 µM
- GI50 (SF-539 CNS): 2.17 µM
- TGI (SF-539 CNS): 12.2 µM
- GI50 (CCRF-CEM leukemia): 2.78 µM
- TGI (CCRF-CEM leukemia): 10.2 µM
- GI50 (NCI-H460 NSCLC): 3.73 µM
- TGI (NCI-H460 NSCLC): 12.5 µM
- GI50 (SNB-75 CNS): 2.16 µM
- TGI (SNB-75 CNS): 7.03 µM
- GI50 (COLO 205 colon): 2.73 µM
- TGI (COLO 205 colon): 6.51 µM
- GI50 (SK-MEL-28 melanoma): 6.9 µM
- TGI (SK-MEL-28 melanoma): 19.7 µM
- GI50 (NCI-H322M lung): 6.68 µM
- TGI (NCI-H322M lung): 21.5 µM
- GI50 (HT29 colon): 2.65 µM
- TGI (HT29 colon): > 26.2 µM
- GI50 (UO-31 renal): 3.6 µM
- TGI (UO-31 renal): 14.7 µM
- GI50 (K-562 leukemia): 1.12 µM
- TGI (K-562 leukemia): 2.79 µM
- GI50 (SK-MEL-2 melanoma): 3.84 µM
- TGI (SK-MEL-2 melanoma): 16.8 µM
- GI50 (HCT-15 colon): 2.97 µM
- TGI (HCT-15 colon): 20.2 µM
- GI50 (DU-145 prostate): 5.67 µM
- TGI (DU-145 prostate): > 45.1 µM
- GI50 (HS 578T breast): 1.75 µM
- TGI (HS 578T breast): 5.83 µM
